Test system: mice
Test: Neuropharmacological Assay (SmartCube)
Assay type: in vivo
Conditions: for minimal effective dose: Mus musculus, MED = dose having 50% or more total activity in SmartCube, read-out: POTENCY (minimal effective dose, MED); for AD: ADHD (SmartCube probability) / AG: analgesic (SmartCube probability) / AX: anxiolytic (SmartCube probability) / CE: cognitive enhancer (SmartCube probability) / DP: anti-depressant (SmartCube probability) / MS: mood stabilizer (SmartCube probability) / PS: anti-psychotic (SmartCube probability) / SD: sedative hypnotic (SmartCube probability) / UN: uncharacterized CNS activity (SmartCube probability): mice, i.p. 15 min before test, most efficacious dose(s) of 3 doses
Excerpt: Neuropharmacological Assay (SmartCube™)
Neurosci. 2011 Sep. 9; 5:103 (doi: 10.3389/fnins.2011.00103) (“Roberds”). As reported in Roberds, because psychiatric diseases generally result from disorders of cell-cell communication, circuitry, intact systems are useful in detecting improvement in disease-relevant endpoints. These endpoints are typically behavioral in nature, often requiring human observation and interpretation. To facilitate testing of multiple compounds for behavioral effects relevant to psychiatric disease, PsychoGenics, Inc. (Tarrytown, N.Y., “PGI”) developed SmartCube™, an automated system in which behaviors of compound-treated mice are captured by digital video and analyzed with computer algorithms. (D. Brunner et al., Drug Discov. Today 2002, 7:S107-S112). PGI Analytical Systems uses data from SmartCube™ to compare the behavioral signature of a test compound to a database of behavioral signatures obtained using a large set of diverse reference compounds. (The composition of the database as well as validation of the method is further described in Roberds). In this way, the neuropharmacological effects of a test compound can be predicted by similarity to major classes of compounds, such as antipsychotics, anxiolytics and antidepressants.
The SmartCube™ system produces an activity signature indicating the probability that the activity of the test compound at the administered dose matches a given class of neuropharmacological agents. (See, e.g., Roberds, FIGS. 2 and 3). The test compound is simultaneously compared against multiple classes of agents; thus, a separate probability is generated for each behavioral effect measured (e.g., anxiolytic activity, analgesic activity, etc.). In the table below, these probabilities are reported for each behavioral effect measured as follows:
where LOQ is the limit of quantification.
Provided compounds were dissolved in a mixture of Pharmasolve™ (N-methyl-2-pyrrolidone), polyethylene glycol and propylene glycol, and were injected i.p. 15 min. before the behavioral test. For each compound, injections were administered at 3 different doses. For each behavioral effect measured, results for the most efficacious dose(s) are presented. In the table below, DP: anti-depressant; AX: anxiolytic; SD: sedative hypnotic; PS: anti-psychotic; MS: mood stabilizer; AD: ADHD; CE: cognitive enhancer; AG: analgesic; UN: uncharacterized CNS activity.
The potency of many of the compounds in the table was also determined in the SmartCube™ system. Test compounds were routinely examined at dose levels of 0.3, 1, 3 10 and 30 mg per kg (mpk), although the dose range was increased or decreased if necessary to obtain a full dose response curve. A compound's minimal effective dose (MED) is a measure of the compounds potency. The MED was defined as the dose (in mpk) having 50% or more total activity in SmartCube.

Row | Structure (SMILES) | minimal effective dose [mg/kg] | AD: ADHD (SmartCube probability) | AG: analgesic (SmartCube probability) | AX: anxiolytic (SmartCube probability) | CE: cognitive enhancer (SmartCube probability) | DP: anti-depressant (SmartCube probability) | MS: mood stabilizer (SmartCube probability) | PS: anti-psychotic (SmartCube probability) | SD: sedative hypnotic (SmartCube probability) | UN: uncharacterized CNS activity (SmartCube probability)
1 | NC[C@@H]1OCCc2c1ccc1c2OCO1 [Example 12, (R)-(8,9-dihydro-6H-[1,3]dioxolo[4,5-f]isochromen-6-yl)methanamine] | 3 to 10 | + (LOQ≤ + <5%) | ++ (5%≤ ++ <25%) | + (LOQ≤ + <5%) | + (LOQ≤ + <5%) | ++++ (50%≤ ++++) | + (LOQ≤ + <5%) | ++ (5%≤ ++ <25%) | ++ (5%≤ ++ <25%) | ++ (5%≤ ++ <25%)
2 | CNC[C@H]1OCCc2ccc(F)cc21 [Example 13, (S)-1-(7-fluoroisochroman-1-yl)-N-methylmethanamine] | 10 to 30 | + (LOQ≤ + <5%) | ++ (5%≤ ++ <25%) | ++ (5%≤ ++ <25%) | + (LOQ≤ + <5%) | ++ (5%≤ ++ <25%) | + (LOQ≤ + <5%) | + (LOQ≤ + <5%) | ++ (5%≤ ++ <25%) | +++ (25%≤ +++ <50%)
3 | CNC[C@@H]1OCCc2ccc(F)cc21 [Example 15, (R)-1-(7-fluoroisochroman-1-yl)-N-methylmethanamine] | < 3 | + (LOQ≤ + <5%) | ++ (5%≤ ++ <25%) | ++ (5%≤ ++ <25%) | ++ (5%≤ ++ <25%) | ++ (5%≤ ++ <25%) | ++ (5%≤ ++ <25%) | +++ (25%≤ +++ <50%) | ++ (5%≤ ++ <25%) | +++ (25%≤ +++ <50%)
4 | CNC[C@H]1OCCc2cc(F)ccc21 [Example 16, (S)-1-(6-fluoroisochroman-1-yl)-N-methylmethanamine] | 10 to 30 | + (LOQ≤ + <5%) | ++ (5%≤ ++ <25%) | ++ (5%≤ ++ <25%) | + (LOQ≤ + <5%) | ++ (5%≤ ++ <25%) | + (LOQ≤ + <5%) | +++ (25%≤ +++ <50%) | ++ (5%≤ ++ <25%) | + (LOQ≤ + <5%)
5 | CNC[C@H]1OCCc2c(F)cccc21 [Example 18, (S)-1-(5-fluoroisochroman-1-yl)-N-methylmethanamine] | 10 to 30 | + (LOQ≤ + <5%) | ++ (5%≤ ++ <25%) | ++ (5%≤ ++ <25%) | ++ (5%≤ ++ <25%) | ++ (5%≤ ++ <25%) | + (LOQ≤ + <5%) | + (LOQ≤ + <5%) | + (LOQ≤ + <5%) | ++ (5%≤ ++ <25%)
6 | CNC[C@H]1OC[C@@H](C)c2ccccc21 [Example 19, N-methyl-1-((1S,4S)-4-methylisochroman-1-yl)methanamine] | 3 to 10 | + (LOQ≤ + <5%) | ++ (5%≤ ++ <25%) | ++ (5%≤ ++ <25%) | ++ (5%≤ ++ <25%) | ++ (5%≤ ++ <25%) | ++ (5%≤ ++ <25%) | ++ (5%≤ ++ <25%) | + (LOQ≤ + <5%) | ++ (5%≤ ++ <25%)
7 | CNC[C@@H]1OC[C@@H](C)c2ccccc21 [Example 20, N-methyl-1-((1R,4S)-4-methylisochroman-1-yl)methanamine] | < 3 | + (LOQ≤ + <5%) | + (LOQ≤ + <5%) | ++ (5%≤ ++ <25%) | ++ (5%≤ ++ <25%) | ++ (5%≤ ++ <25%) | + (LOQ≤ + <5%) | ++++ (50%≤ ++++) | ++ (5%≤ ++ <25%) | ++++ (50%≤ ++++)
8 | CNC[C@H]1OC[C@@H](F)c2ccccc21 [Example 21, 1-((1S,4S)-4-fluoroisochroman-1-yl)-N-methylmethanamine] | 3 to 10 | + (LOQ≤ + <5%) | +++ (25%≤ +++ <50%) | ++ (5%≤ ++ <25%) | ++ (5%≤ ++ <25%) | ++ (5%≤ ++ <25%) | + (LOQ≤ + <5%) | ++ (5%≤ ++ <25%) | ++ (5%≤ ++ <25%) | +++ (25%≤ +++ <50%)
9 | CNC[C@@H]1OC[C@H](F)c2ccccc21 [Example 22, 1-((1R,4R)-4-fluoroisochroman-1-yl)-N-methylmethanamine] | < 3 | + (LOQ≤ + <5%) | ++ (5%≤ ++ <25%) | ++ (5%≤ ++ <25%) | ++ (5%≤ ++ <25%) | +++ (25%≤ +++ <50%) | ++ (5%≤ ++ <25%) | +++ (25%≤ +++ <50%) | ++ (5%≤ ++ <25%) | + (LOQ≤ + <5%)
10 | CNC[C@H]1OCC(C)(C)c2ccccc21 [Example 23, (S)-1-(4,4-dimethylisochroman-1-yl)-N-methylmethanamine] | 3 to 10 | + (LOQ≤ + <5%) | ++ (5%≤ ++ <25%) | ++ (5%≤ ++ <25%) | ++ (5%≤ ++ <25%) | ++ (5%≤ ++ <25%) | + (LOQ≤ + <5%) | +++ (25%≤ +++ <50%) | ++ (5%≤ ++ <25%) | + (LOQ≤ + <5%)
11 | CNC[C@@H]1OCC(C)(C)c2ccccc21 [Example 24, (R)-1-(4,4-dimethylisochroman-1-yl)-N-methylmethanamine] | < 3 | + (LOQ≤ + <5%) | ++ (5%≤ ++ <25%) | ++ (5%≤ ++ <25%) | ++ (5%≤ ++ <25%) | ++ (5%≤ ++ <25%) | + (LOQ≤ + <5%) | +++ (25%≤ +++ <50%) | ++ (5%≤ ++ <25%) | +++ (25%≤ +++ <50%)
12 | CNC[C@H]1OCCc2cccc(F)c21 [Example 25, (S)-1-(8-fluoroisochroman-1-yl)-N-methylmethanamine] | 3 to 10 | + (LOQ≤ + <5%) | ++ (5%≤ ++ <25%) | + (LOQ≤ + <5%) | ++ (5%≤ ++ <25%) | +++ (25%≤ +++ <50%) | + (LOQ≤ + <5%) | ++ (5%≤ ++ <25%) | ++ (5%≤ ++ <25%) | + (LOQ≤ + <5%)
